Results as given in the NIST ThermoML archive (doi:10.1016/j.jct.2018.12.001).
Values joined by “and” are separate entries in the source; they are usually repeats but may differ in a detail not shown here. Equal entries are not always repeated.

Key:
[1] = Crystal; for vapor or sublimation pressure: Calculated from knudsen effusion weight loss; for Normal melting temperature: DTA
[2] = Molar enthalpy of transition or fusion; settings: Crystal; DSC

c1ccc(-c2cnc(-c3ccccc3)o2)cc1 [2,5-diphenyloxazole]
[1]
Settings | vapor or sublimation pressure
328.18 K | 7.2e-05 kPa
329.28 K | 8.2e-05 kPa and 8.1e-05 kPa
330.3 K | 9.2e-05 kPa and 9.4e-05 kPa
331.19 K | 0.000103 kPa and 0.000104 kPa
332.29 K | 0.000118 kPa and 0.000116 kPa
333.29 K | 0.000133 kPa and 0.000135 kPa
334.19 K | 0.000149 kPa and 0.000148 kPa
335.17 K | 0.000167 kPa and 0.000166 kPa
336.2 K | 0.000189 kPa and 0.000188 kPa
337.18 K | 0.000209 kPa and 0.000212 kPa and 0.000215 kPa
338.17 K | 0.000241 kPa and 0.000237 kPa and 0.000238 kPa
339.29 K | 0.00027 kPa and 0.000269 kPa and 0.000268 kPa
340.25 K | 0.000301 kPa and 0.0003 kPa
341.3 K | 0.00034 kPa and 0.000343 kPa and 0.000342 kPa
342.3 K | 0.000385 kPa and 0.000382 kPa and 0.000384 kPa

Settings | Molar enthalpy of transition or fusion [kcal/mol] | Normal melting temperature [°C]
[1] | – | 71.08
[2] | 5.48 | –

O=C1OC(=O)C(c2ccccc2)=C1c1ccccc1 [diphenylmaleic anhydride]
[1]
Settings | vapor or sublimation pressure
361.07 K | 0.000112 kPa and 0.000113 kPa and 0.000111 kPa
363.19 K | 0.00014 kPa and 0.000138 kPa
365.3 K | 0.000178 kPa and 0.000175 kPa and 0.000177 kPa
367.1 K | 0.000213 kPa and 0.000215 kPa
369.26 K | 0.000266 kPa and 0.000265 kPa
371.29 K | 0.000335 kPa and 0.000332 kPa and 0.000331 kPa
373.08 K | 0.000392 kPa and 0.000393 kPa and 0.000399 kPa
375.28 K | 0.000492 kPa and 0.000483 kPa and 0.000494 kPa
377.3 K | 0.00061 kPa and 0.0006 kPa and 0.00059 kPa
379.19 K | 0.000733 kPa and 0.000729 kPa and 0.00074 kPa
381.16 K | 0.000894 kPa and 0.000891 kPa and 0.000881 kPa
383.2 K | 0.001108 kPa and 0.001106 kPa and 0.00109 kPa

Settings | Molar enthalpy of transition or fusion [kcal/mol] | Normal melting temperature [°C]
[1] | – | 157.52
[2] | 6.52 | –

O=C1C=C(c2ccccc2)C(=O)O1 [phenylmaleic anhydride]
[1]
Settings | vapor or sublimation pressure
319.14 K | 0.000102 kPa and 0.0001 kPa
321.22 K | 0.000125 kPa and 0.000126 kPa and 0.00013 kPa
323.2 K | 0.000161 kPa and 0.000164 kPa and 0.000165 kPa
325.15 K | 0.000202 kPa and 0.0002 kPa and 0.000205 kPa
327.17 K | 0.000252 kPa and 0.00025 kPa and 0.000255 kPa
329.3 K | 0.000323 kPa and 0.000321 kPa and 0.000325 kPa
331.18 K | 0.000398 kPa and 0.0004 kPa and 0.000394 kPa
333.2 K | 0.0005 kPa and 0.000496 kPa
335.36 K | 0.000633 kPa and 0.000631 kPa and 0.000637 kPa
337.13 K | 0.000764 kPa and 0.000748 kPa and 0.000772 kPa
339.23 K | 0.000919 kPa and 0.000934 kPa and 0.000926 kPa
341.31 K | 0.001191 kPa and 0.001182 kPa and 0.001186 kPa

Settings | Molar enthalpy of transition or fusion [kcal/mol] | Normal melting temperature [°C]
[1] | – | 120.20
[2] | 6.2 | –
